Source: US6534524B1, “Indazole compounds and pharmaceutical compositions for inhibiting protein kinases, and methods for their use” (Agouron Pharmaceuticals, Inc., priority 1999, dated 2003)

Tested on: human umbilical vein endothelial cells (HUVEC)
Experiment: HUVEC proliferation assay (VEGF-stimulated, MTT)
Type: cell-based
Details: Library III; HUVEC proliferation; nominal concentration of 0.5 nM; crude reaction mixtures

SMILES	% inhibition [%]
O=C(Nc1cc(O)[nH]n1)c1ccccc1Sc1ccc2c(/C=C/c3ccccn3)n[nH]c2c1	−17
COc1ccc(NC(=O)c2ccccc2Sc2ccc3c(/C=C/c4ccccn4)n[nH]c3c2)cc1Cl	2
O=C(Nc1ccc(Cl)nn1)c1ccccc1Sc1ccc2c(/C=C/c3ccccn3)n[nH]c2c1	−21
Cc1ccc(CNC(=O)c2ccccc2Sc2ccc3c(/C=C/c4ccccn4)n[nH]c3c2)cc1Cl	−16
CCOC(=O)c1ccc(NC(=O)c2ccccc2Sc2ccc3c(/C=C/c4ccccn4)n[nH]c3c2)cc1	−25
CCN(CC)c1ccc(NC(=O)c2ccccc2Sc2ccc3c(/C=C/c4ccccn4)n[nH]c3c2)cc1	−9
Cc1ccc(CO)cc1NC(=O)c1ccccc1Sc1ccc2c(/C=C/c3ccccn3)n[nH]c2c1	1
O=C(NCCc1cccc(F)c1)c1ccccc1Sc1ccc2c(/C=C/c3ccccn3)n[nH]c2c1	4
COc1cc(CNC(=O)c2ccccc2Sc2ccc3c(/C=C/c4ccccn4)n[nH]c3c2)cc(OC)c1	37
CCCCOCCCNC(=O)c1ccccc1Sc1ccc2c(/C=C/c3ccccn3)n[nH]c2c1	−12
O=C(NCCCCCCO)c1ccccc1Sc1ccc2c(/C=C/c3ccccn3)n[nH]c2c1	−20
CC(C)=CCC/C(C)=C/CNC(=O)c1ccccc1Sc1ccc2c(/C=C/c3ccccn3)n[nH]c2c1	−22
O=C(NC1Cc2ccccc2C1)c1ccccc1Sc1ccc2c(/C=C/c3ccccn3)n[nH]c2c1	7
O=C(Nc1cc(Cl)cc(Cl)c1)c1ccccc1Sc1ccc2c(/C=C/c3ccccn3)n[nH]c2c1	−22
CC(C)c1ccc(NC(=O)c2ccccc2Sc2ccc3c(/C=C/c4ccccn4)n[nH]c3c2)cc1	−12
O=C(NCc1ccc(F)c(F)c1)c1ccccc1Sc1ccc2c(/C=C/c3ccccn3)n[nH]c2c1	0
Cc1ccc(CNC(=O)c2ccccc2Sc2ccc3c(/C=C/c4ccccn4)n[nH]c3c2)cc1C	−6
Cc1cccc(CNC(=O)c2ccccc2Sc2ccc3c(/C=C/c4ccccn4)n[nH]c3c2)c1C	13
Cc1ccc(CCNC(=O)c2ccccc2Sc2ccc3c(/C=C/c4ccccn4)n[nH]c3c2)cc1	−1

SMILES	% inhibition [%]
CCc1ccc(CCNC(=O)c2ccccc2Sc2ccc3c(/C=C/c4ccccn4)n[nH]c3c2)cc1	−11
O=C(NCc1ccc(F)cc1F)c1ccccc1Sc1ccc2c(/C=C/c3ccccn3)n[nH]c2c1	11
O=C(NCc1cc(F)ccc1F)c1ccccc1Sc1ccc2c(/C=C/c3ccccn3)n[nH]c2c1	15
O=C(NCCc1ccc(F)cc1)c1ccccc1Sc1ccc2c(/C=C/c3ccccn3)n[nH]c2c1	3
CC(NC(=O)c1ccccc1Sc1ccc2c(/C=C/c3ccccn3)n[nH]c2c1)c1ccc(F)cc1 (centres unmarked)	2
CC(NC(=O)c1ccccc1Sc1ccc2c(/C=C/c3ccccn3)n[nH]c2c1)c1ccc(Cl)cc1 (centres unmarked)	14
O=C(Nc1ccccn1)c1ccccc1Sc1ccc2c(/C=C/c3ccccn3)n[nH]c2c1	−31
O=C(Nc1cccnc1)c1ccccc1Sc1ccc2c(/C=C/c3ccccn3)n[nH]c2c1	−2
Cc1oc(NC(=O)c2ccccc2Sc2ccc3c(/C=C/c4ccccn4)n[nH]c3c2)c(C#N)c1C	13
Cc1cc(C)nc(NC(=O)c2ccccc2Sc2ccc3c(/C=C/c4ccccn4)n[nH]c3c2)c1	3
O=C(Nc1ccncc1)c1ccccc1Sc1ccc2c(/C=C/c3ccccn3)n[nH]c2c1	6
COC(=O)c1sccc1NC(=O)c1ccccc1Sc1ccc2c(/C=C/c3ccccn3)n[nH]c2c1	2
COC(=O)c1ccc(NC(=O)c2ccccc2Sc2ccc3c(/C=C/c4ccccn4)n[nH]c3c2)cc1	−1
COC(=O)c1ccccc1NC(=O)c1ccccc1Sc1ccc2c(/C=C/c3ccccn3)n[nH]c2c1	3
O=C(NC1CCOC1=O)c1ccccc1Sc1ccc2c(/C=C/c3ccccn3)n[nH]c2c1 (centres unmarked)	3
O=C(Nc1ccccc1CO)c1ccccc1Sc1ccc2c(/C=C/c3ccccn3)n[nH]c2c1	0
CN(C)c1ccc(NC(=O)c2ccccc2Sc2ccc3c(/C=C/c4ccccn4)n[nH]c3c2)cc1	18
NC(=O)c1ccccc1NC(=O)c1ccccc1Sc1ccc2c(/C=C/c3ccccn3)n[nH]c2c1	7
O=C(Nc1cccc(O)c1)c1ccccc1Sc1ccc2c(/C=C/c3ccccn3)n[nH]c2c1	−6

SMILES	% inhibition [%]
NC(=O)c1ccc(NC(=O)c2ccccc2Sc2ccc3c(/C=C/c4ccccn4)n[nH]c3c2)cc1	2
O=C(Nc1cccc(CO)c1)c1ccccc1Sc1ccc2c(/C=C/c3ccccn3)n[nH]c2c1	14
O=C(Nc1ccc(CCO)cc1)c1ccccc1Sc1ccc2c(/C=C/c3ccccn3)n[nH]c2c1	10
COc1ccc(NC(=O)c2ccccc2Sc2ccc3c(/C=C/c4ccccn4)n[nH]c3c2)cn1	−20
O=C(Nc1ccncn1)c1ccccc1Sc1ccc2c(/C=C/c3ccccn3)n[nH]c2c1	−10
NC(=O)c1cccc(NC(=O)c2ccccc2Sc2ccc3c(/C=C/c4ccccn4)n[nH]c3c2)c1	4
O=C(Nc1ccccc1CCO)c1ccccc1Sc1ccc2c(/C=C/c3ccccn3)n[nH]c2c1	10
CC(=O)c1ccccc1NC(=O)c1ccccc1Sc1ccc2c(/C=C/c3ccccn3)n[nH]c2c1	−7
COc1ccc(CCNC(=O)c2ccccc2Sc2ccc3c(/C=C/c4ccccn4)n[nH]c3c2)cc1OC	−3
O=C(NCc1ccc(Cl)cc1)c1ccccc1Sc1ccc2c(/C=C/c3ccccn3)n[nH]c2c1	4
COc1cccc(CCNC(=O)c2ccccc2Sc2ccc3c(/C=C/c4ccccn4)n[nH]c3c2)c1	8
COc1cccc(CNC(=O)c2ccccc2Sc2ccc3c(/C=C/c4ccccn4)n[nH]c3c2)c1OC	10
COc1ccc(CNC(=O)c2ccccc2Sc2ccc3c(/C=C/c4ccccn4)n[nH]c3c2)cc1OC	7
CCOc1ccccc1CNC(=O)c1ccccc1Sc1ccc2c(/C=C/c3ccccn3)n[nH]c2c1	−9
Nc1ccccc1CNC(=O)c1ccccc1Sc1ccc2c(/C=C/c3ccccn3)n[nH]c2c1	46
O=C(NCCc1ccccc1F)c1ccccc1Sc1ccc2c(/C=C/c3ccccn3)n[nH]c2c1	2
O=C(NCc1cccs1)c1ccccc1Sc1ccc2c(/C=C/c3ccccn3)n[nH]c2c1	23
Nc1cccc(F)c1CNC(=O)c1ccccc1Sc1ccc2c(/C=C/c3ccccn3)n[nH]c2c1	11
